In US20100173888A1 (Pfizer Inc, priority 2008, published 2010):

Biological target: human recombinant H-PGDS (Homo sapiens, UniProt O60760)
Assay: Slightly modified fluorescence intensity h-PGDS TBA enzyme assay (1:40,000 enzyme, 40 second reaction, 1/2 log dilutions, top concentration typically 10 μM)
Format: biochemical
Details: slightly modified assay: 1:40,000 human recombinant H-PGDS
Method in brief: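 Enzyme pre-incubated 10 min at room temperature with inhibitor in 100 mM Trizma pH 8.0, 100 μM MgCl2, 0.1 mg/ml rabbit IgG, 2.5 mM glutathione, 0.5% DMSO; reaction started with 5.0 μM PGH2 and stopped with FeCl2/citric acid. Remaining PGH2 quantified as MDA–TBA fluorescence (ex 530/em 560 nm); IC50 from 4-parameter fit, 11 concentrations in duplicate.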

Sequence of human recombinant H-PGDS (O60760 whole entry): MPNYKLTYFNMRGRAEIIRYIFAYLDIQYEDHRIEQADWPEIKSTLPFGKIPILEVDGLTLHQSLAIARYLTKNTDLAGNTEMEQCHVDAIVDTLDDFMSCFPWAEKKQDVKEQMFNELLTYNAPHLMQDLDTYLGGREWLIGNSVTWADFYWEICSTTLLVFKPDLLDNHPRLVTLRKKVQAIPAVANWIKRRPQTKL

| Molecule | IC50 |
| --- | --- |
| O=C(N[C@H]1CC[C@H](C(=O)O)CC1)c1ccc(-c2cccc(F)c2)nc1 [Example 84, trans-4-({[6-(3-fluorophenyl)pyridin-3yl]carbonyl}amino)cyclohexanecarboxylic acid] | 39.8 nM |
| O=C(N[C@H]1CC[C@H](C(=O)NC2CCCC2)CC1)c1ccc(-c2cccc(F)c2)nc1 [Example 86, N-[trans-4-(Cyclopentylcarbamoyl)cyclohexyl]-6-(3-fluorophenyl)nicotinamide] | 25.6 nM |
| CC(C)NC(=O)[C@H]1CC[C@H](NC(=O)c2ccc(-c3cccc(F)c3)nc2)CC1 [Example 88, 6-(3-Fluorophenyl)-N-[trans-4-(isopropylcarbamoyl)cyclohexyl]nicotinamide] | 14.7 nM |
| CNCCN(C)C(=O)[C@H]1CC[C@H](NC(=O)c2ccc(-c3cccc(F)c3)nc2)CC1 [Example 93, 6-(3-Fluorophenyl)-N-(trans-4-{methyl[2-(methylamino)ethyl]carbamoyl}cyclohexyl)nicotinamide] | 15.3 nM |
| CN[C@H]1CC[C@H](NC(=O)c2ccc(-c3cccc(F)c3)nc2)CC1 [Example 94, 6-(3-Fluorophenyl)-N-[trans-4-(methylamino)cyclohexyl]-nicotinamide] | 51.9 nM |
| CCN1CCN(C(=O)[C@H]2CC[C@H](NC(=O)c3ccc(-c4cccc(F)c4)nc3)CC2)CC1 [Example 96, N-{trans-4-[(4-Ethylpiperazin-1-yl)carbonyl]cyclohexyl}-6-(3-fluorophenyl)nicotinamide] | 23.7 nM |
| N[C@H]1CCN(C(=O)[C@H]2CC[C@H](NC(=O)c3ccc(-c4cccc(F)c4)nc3)CC2)C1 [Example 98, N-(trans-4-{[(3S)-3-Aminopyrrolidin-1-yl]carbonyl}cyclohexyl)-6-(3-fluorophenyl)nicotinamide] | 21.6 nM |
| C[C@H]1CN(C(=O)[C@H]2CC[C@H](NC(=O)c3ccc(-c4cccc(F)c4)nc3)CC2)CCN1 [Example 101, 6-(3-Fluorophenyl)-N-(trans-4-{[(3S)-3-methylpiperazin-1-yl]carbonyl}cyclohexyl)nicotinamide] | 15.8 nM |
| Cc1nccn1[C@H]1CC[C@H](NC(=O)c2ccc(-c3cccc(F)c3)nc2)CC1 [Example 105, 6-(3-Fluorophenyl)-N-[trans-4-(2-methyl-1H-imidazol-1-yl)cyclohexyl]nicotinamide] | 14.7 nM |
| CC(C)c1nccn1[C@H]1CC[C@H](NC(=O)c2ccc(-c3cccc(F)c3)nc2)CC1 [Example 106, 6-(3-Fluorophenyl)-N-[trans-4-(2-isopropyl-1H-imidazol-1-yl)cyclohexyl]nicotinamide] | 14.2 nM |
| O=C(N[C@H]1CC[C@H](C(=O)N2CCN(C3CC3)CC2)CC1)c1ccc(-c2cccc(F)c2)nc1 [Example 107, N-{trans-4-[(4-Cyclopropylpiperazin-1-yl)carbonyl]cyclohexyl}-6-(3-fluorophenyl)nicotinamide] | 31.1 nM |
| C[C@@H]1CNCCN1C(=O)[C@H]1CC[C@H](NC(=O)c2ccc(-c3cccc(F)c3)nc2)CC1 [Example 108, 6-(3-Fluorophenyl)-N-(trans-4-{[(2R)-2-methylpiperazin-1-yl]carbonyl}cyclohexyl)nicotinamide] | 21.8 nM |
| C[C@H]1CNCCN1C(=O)[C@H]1CC[C@H](NC(=O)c2ccc(-c3cccc(F)c3)nc2)CC1 [Example 109, 6-(3-Fluorophenyl)-N-(trans-4-{[(2S)-2-methylpiperazin-1-yl]carbonyl}cyclohexyl)nicotinamide] | 16.7 nM |
| CN1CCN(C[C@H]2CC[C@H](NC(=O)c3ccc(-c4cccc(F)c4)nc3)CC2)CC1 [Example 111, 6-(3-Fluorophenyl)-N-{trans-4-[(4-methylpiperazin-1-yl)methyl]cyclohexyl}nicotinamide] | 23 nM |
| CN(C)C[C@H]1CC[C@H](NC(=O)c2ccc(-c3cccc(F)c3)nc2)CC1 [Example 112, N-{trans-4-[(Dimethylamino)methyl]cyclohexyl}-6-(3-fluorophenyl)nicotinamide] | 15.8 nM |
| C[C@]1(C(=O)O)CC[C@@H](NC(=O)c2ccc(-c3cccc(F)c3)nc2)CC1 [Example 116, cis-4-({[6-(3-Fluorophenyl)pyridin-3-yl]carbonyl}amino)-1-methylcyclohexanecarboxylic acid] | 139 nM |
| CN1CCN(C(=O)C2(C)CCC(NC(=O)c3ccc(-c4cccc(F)c4)nc3)CC2)CC1 (stereo not drawn) [Example 118, 6-(3-Fluorophenyl)-N-{cis-4-methyl-4-[(4-methylpiperazin-1-yl)carbonyl]cyclohexyl}nicotinamide] | 51.2 nM |
| O=C(NC1CCCc2cccnc21)c1ccc(-c2cccc(F)c2)nc1 (centres unmarked) [Example 128, 6-(3-Fluorophenyl)-N-(5,6,7,8-tetrahydroquinolin-8-yl)nicotinamide] | 179 nM |
| N-{cis-3-[(3-aminocyclohexyl)carbamoyl]cyclohexyl}-6-(3-fluorophenyl)nicotinamide N-{trans-3-[(3-aminocyclohexyl)carbamoyl]cyclohexyl}-6-(3-fluorophenyl)nicotinamide [Example 64D] | 14.7 nM |

Now those with a lower IC50, led by results:

| IC50 | Molecule |
| --- | --- |
| 6.93 nM | CO[C@H]1CC[C@H](NC(=O)c2ccc(-c3cccc(F)c3)nc2)CC1 [Example 83, 6-(3-Fluorophenyl)-N-(trans-4-methoxycyclohexyl)nicotinamide] |
| 2.75 nM | O=C(N[C@H]1CC[C@H](C(=O)N2CCC(O)CC2)CC1)c1ccc(-c2cccc(F)c2)nc1 [Example 85, 6-(3-Fluorophenyl)-N-{trans-4-[(4-hydroxypiperidin-1-yl)carbonyl]cyclohexyl}nicotinamide] |
| 2.07 nM | O=C(N[C@H]1CC[C@H](C(=O)N2CCCC2)CC1)c1ccc(-c2cccc(F)c2)nc1 [Example 87, 6-(3-Fluorophenyl)-N-[trans-4-(pyrrolidin-1-ylcarbonyl)cyclohexyl]nicotinamide] |
| 3.93 nM | O=C(N[C@H]1CC[C@H](OCCO)CC1)c1ccc(-c2cccc(F)c2)nc1 [Example 89, 6-(3-Fluorophenyl)-N-[trans-4-(2-hydroxyethoxy)cyclohexyl]nicotinamide] |
| 12.6 nM | CN1CCN(C(=O)[C@H]2CC[C@H](NC(=O)c3ccc(-c4cccc(F)c4)nc3)CC2)CC1 [Example 90, 6-(3-Fluorophenyl)-N-{trans-4-[(4-methylpiperazin-1-yl)carbonyl]cyclohexyl}nicotinamide] |
| 3.94 nM | O=C(N[C@H]1CC[C@H](C(=O)N2CCOCC2)CC1)c1ccc(-c2cccc(F)c2)nc1 [Example 91, 6-(3-Fluorophenyl)-N-[trans-4-(morpholin-4-ylcarbonyl)cyclohexyl]nicotinamide] |
| 2.71 nM | CN(C)C(=O)[C@H]1CC[C@H](NC(=O)c2ccc(-c3cccc(F)c3)nc2)CC1 [Example 92, N-[trans-4-(Dimethylcarbamoyl)cyclohexyl]-6-(3-fluorophenyl)nicotinamide] |
| 6.28 nM | CN(C)C(=O)C[C@H]1CC[C@H](NC(=O)c2ccc(-c3cccc(F)c3)nc2)CC1 [Example 95, N-{trans-4-[2-(Dimethylamino)-2-oxoethyl]cyclohexyl}-6-(3-fluorophenyl)nicotinamide] |
| 2.9 nM | CC(C)(O)[C@H]1CC[C@H](NC(=O)c2ccc(-c3cccc(F)c3)nc2)CC1 [Example 97, 6-(3-Fluorophenyl)-N-[trans-4-(1-hydroxy-1-methylethyl)cyclohexyl]nicotinamide] |
| 11.2 nM | N[C@@H]1CCN(C(=O)[C@H]2CC[C@H](NC(=O)c3ccc(-c4cccc(F)c4)nc3)CC2)C1 [Example 99, N-(trans-4-{[(3R)-3-Aminopyrrolidin-1-yl]carbonyl}cyclohexyl)-6-(3-fluorophenyl)nicotinamide] |
| 12.9 nM | NC1CN(C(=O)[C@H]2CC[C@H](NC(=O)c3ccc(-c4cccc(F)c4)nc3)CC2)C1 [Example 100, N-{trans-4-[(3-Aminoazetidin-1-yl)carbonyl]cyclohexyl}-6-(3-fluorophenyl)nicotinamide] |
| 9.74 nM | C[C@@H]1CN(C(=O)[C@H]2CC[C@H](NC(=O)c3ccc(-c4cccc(F)c4)nc3)CC2)CCN1 [Example 102, 6-(3-Fluorophenyl)-N-(trans-4-{[(3R)-3-methylpiperazin-1-yl]carbonyl}cyclohexyl)nicotinamide] |
| 1.43 nM | O=C(N[C@H]1CC[C@H](CO)CC1)c1ccc(-c2cccc(F)c2)nc1 [Example 103, 6-(3-Fluorophenyl)-N-[trans-4-(hydroxymethyl)cyclohexyl]nicotinamide] |
| 5.9 nM | O=C(N[C@H]1CC[C@H](CN2CCOCC2)CC1)c1ccc(-c2cccc(F)c2)nc1 [Example 110, 6-(3-Fluorophenyl)-N-[trans-4-(morpholin-4-ylmethyl)cyclohexyl]nicotinamide] |
| 9.76 nM | Cc1nccn1C[C@H]1CC[C@H](NC(=O)c2ccc(-c3cccc(F)c3)nc2)CC1 [Example 113, 6-(3-Fluorophenyl)-N-{trans-4-[(2-methyl-1H-imidazol-1-yl)methyl]cyclohexyl}nicotinamide] |
| 8.74 nM | C[C@]1(O)CC[C@H](NC(=O)c2ccc(-c3cccc(F)c3)nc2)CC1 [Example 115, 6-(3-Fluorophenyl)-N-(trans-4-hydroxy-4-methylcyclohexyl)nicotinamide] |
| 7.17 nM | C[C@]1(C(=O)O)CC[C@H](NC(=O)c2ccc(-c3cccc(F)c3)nc2)CC1 [Example 117, trans-4-({[6-(3-Fluorophenyl)pyridin-3-yl]carbonyl}amino)-1-methylcyclohexanecarboxylic acid] |
| 4.07 nM | CCn1cnc2c1CCC(NC(=O)c1ccc(-c3cccc(F)c3)nc1)C2 (centres unmarked) [Example 126, N-(1-Ethyl-4,5,6,7-tetrahydro-1H-benzoimidazol-5-yl)-6-(3-fluoro-phenyl)-nicotinamide] |
| 5.03 nM | O=C(NC1CCc2ncccc2C1)c1ccc(-c2cccc(F)c2)nc1 (centres unmarked) [Example 127, 6-(3-Fluorophenyl)-N-(5,6,7,8-tetrahydroquinolin-6-yl)nicotinamide] |
